Source: US9260760B2, “Method for determining complete response to anticancer therapy” (Board of Regents, The University of Texas System, priority 2012, dated 2016)
Several values for one entry are separate records, joined by “and”; a condition that tells them apart may be missing. Identical values can stand only once.

Tests used:
[1] = tested on: metastatic colorectal cancer; test: Study 1: retrospective cohort, XCEL with or without radiation; tumor response (RECIST), PFS and OS; type: in vivo, human
From the text: The institutional review board of The University of Texas M. D. Anderson Cancer Center approved this retrospective expanded cohort study. Between October 2000 and December 2003, seventy-four patients with metastatic colorectal cancer received capecitabine with concurrent celecoxib (n=66), or rofecoxib (n=2), ibuprofen (n=2), sulindac (n=2) and high dose aspirin (n=2).
(§1) The radiation was delivered to the target area using 18 MV photons with 3-D conformal planning technique. The dose of radiation was either 35-40 Gy (n=18) or >45 Gy (n=15) with dose radiation missing in one patient. […] Celecoxib was continued with capecitabine to prevent HFS and to improve survival.
All patients were subjected to routine clinical examinations, laboratory analyses, and computed tomography. Patients were seen weekly during radiotherapy if treated on site or every 6-9 weeks with physical examinations, laboratory tests, and computed tomography. Treatment-related toxicity was graded using the National Institutes of Health's Common Toxicities Criteria (CTC) version 2.0. Tumor responses were evaluated using RECIST criteria. Complete response was defined as complete radiographic disappearance of measurable or evaluable disease or stable, minimal radiographic findings; partial response was defined as reduction of the longest dimension of measurable disease by at least 50%; stable disease was defined as reduction of the longest dimension by less than 25%; These responses or stable must be confirmed at least by 3 months interval evaluation; Progressive disease was defined as growth of the tumor by more than 25% in the longest dimension or development of new lesions. Overall response rate was defined as the sum of the complete and partial response rates and the tumor control rate was defined as the sum of overall response rates with stable disease rates. The date of death was ascertained through the cancer registry or through a search of patients' social security numbers in the Social Security Death Index (ssdi.genealogy.rootsweb.com). The cutoff point for collection of data was April 2004.
Continuous variables were summarized using the mean (±standard deviation) or the median (range). […] Progression-free and overall survival distributions were summarized using the method of Kaplan and Meier. Differences in progression-free and overall survival by subgroup were analyzed using the log-rank test. Multivariate models of predictors of progression-free survival and overall survival were evaluated using the proportional hazards (Cox) regression model. P<0.05 was considered statistically significant.

[2] = Study 1: treatment-related toxicity of XCEL (CTC version 2.0); type: in vivo, human
From the text: as §1
All patients were subjected to routine clinical examinations, laboratory analyses, and computed tomography. Patients were seen weekly during radiotherapy if treated on site or every 6-9 weeks with physical examinations, laboratory tests, and computed tomography. Treatment-related toxicity was graded using the National Institutes of Health's Common Toxicities Criteria (CTC) version 2.0. Tumor responses were evaluated using RECIST criteria. […] Overall response rate was defined as the sum of the complete and partial response rates and the tumor control rate was defined as the sum of overall response rates with stable disease rates. The date of death was ascertained through the cancer registry or through a search of patients' social security numbers in the Social Security Death Index (ssdi.genealogy.rootsweb.com).

[3] = earlier study, cited from earlier work
[4] = First-line responders, no radiation (n = 5)
[5] = First-line responders, radiation (n = 4)
[6] = First-line, no radiation (n = 14)
[7] = Second-line, no radiation (n = 13)
[8] = Second-line, radiation (n = 20)
[9] = second-line XCEL, progressed on 5FU and irinotecan (n=28)
[10] = second-line with 9 first-line responding patients included
[11] = second-line, irinotecan refractory

With Cc1ccc(-c2cc(C(F)(F)F)nn2-c2ccc(S(N)(=O)=O)cc2)cc1 [XCEL] as the compound, how does the “Overall Survival, Median (95% CI)” value ([1]; All) read?
Its value is 22.0 (17.8-31.5) months.

What about the “Progression-free survival, Median (95% CI)” value ([1]; All) of the same compound?
The value was 8.3 (7.0-11.0) months.

What about the “Overall Survival, Median (95% CI)” value ([1]; CEA >3.0 ng/ml) of the same compound?
The value was 20.0 (16.2-26.9) months.

And the “Progression-free survival, Median (95% CI)” value ([1]; CEA >3.0 ng/ml)?
Its value is 7.1 (5.7-9.4) months.

And the “Overall Survival, Median (95% CI)” value ([1]; CEA ≦3.0 ng/ml)?
The value was 31.5 (18.0-NR) months.

And the “Progression-free survival, Median (95% CI)” value ([1]; CEA ≦3.0 ng/ml)?
The value was 16.8 (9.4-NR) months.

And the Complete response [1, 4]?
Its Complete response is 4 (80) No. of patients (%).

What about the Overall response [1, 4] of the same compound?
The Overall response was 4 (80) No. of patients (%).

And the Partial response [1, 4]?
Its Partial response is 0 (0) No. of patients (%).

And the Stable disease [1, 4]?
The Stable disease was 0 (0) No. of patients (%).

And the Tumor control [1, 4]?
The Tumor control was 4 (80) No. of patients (%).

What about the Complete response [1, 5] of the same compound?
Its Complete response is 3 (75) No. of patients (%).

And the Overall response [1, 5]?
Its Overall response is 4 (100) No. of patients (%).

And the Partial response [1, 5]?
Its Partial response is 1 (0) No. of patients (%).

And the Stable disease [1, 5]?
The Stable disease was 0 (0) No. of patients (%).

And the Tumor control [1, 5]?
Its Tumor control is 4 (100) No. of patients (%).

What about the Complete response [1, 6] of the same compound?
The Complete response was 1 (7) No. of patients (%).

And the Overall response [1, 6]?
The Overall response was 4 (29) No. of patients (%).

What about the Partial response [1, 6] of the same compound?
Its Partial response is 3 (21) No. of patients (%).

What about the Stable disease [1, 6] of the same compound?
Its Stable disease is 8 (57) No. of patients (%).

What about the Tumor control [1, 6] of the same compound?
Its Tumor control is 12 (86) No. of patients (%).

And the Complete response ([1]; First-line, radiation (n = 10))?
Its Complete response is 3 (30) No. of patients (%).

What about the Overall response ([1]; First-line, radiation (n = 10)) of the same compound?
Its Overall response is 4 (40) No. of patients (%).

What about the Partial response ([1]; First-line, radiation (n = 10)) of the same compound?
Its Partial response is 3 (20) No. of patients (%).

And the Stable disease ([1]; First-line, radiation (n = 10))?
Its Stable disease is 4 (40) No. of patients (%).

And the Tumor control ([1]; First-line, radiation (n = 10))?
Its Tumor control is 8 (80) No. of patients (%).

And the “Progression-free survival, Median (95% CI)” value ([1]; LDH >618)?
The value was 6.4 (4.3-7.2) months.

And the “Progression-free survival, Median (95% CI)” value ([1]; LDH ≦618)?
Its value is 14.5 (9.2-26.3) months.

What about the “Overall Survival, Median (95% CI)” value ([1]; LDH ≦618 (normal level of LDH)) of the same compound?
The value was 31 months and 31.5 (23.6-NR) months.

And the “Overall Survival, Median (95% CI)” value ([1]; No Radiation (RT))?
The value was 20.0 (16.6-22.8) months.

And the “Progression-free survival, Median (95% CI)” value ([1]; No Radiation (RT))?
The value was 7.2 (4.8-9.4) months.

What about the Complete response ([1]; No radiation (n = 32)) of the same compound?
The Complete response was 4 (13) No. of patients (%).

What about the Overall response ([1]; No radiation (n = 32)) of the same compound?
The Overall response was 10 (31) No. of patients (%).

And the Partial response ([1]; No radiation (n = 32))?
The Partial response was 6 (19) No. of patients (%).

And the “Stable disease (>4 months)” value ([1]; No radiation (n = 32))?
The value was 13 (41) No. of patients (%).

And the Tumor control ([1]; No radiation (n = 32))?
The Tumor control was 23 (72) No. of patients (%).

What about the “Overall Survival, Median (95% CI)” value ([1]; No surgery) of the same compound?
Its value is 19.3 (16.2-26.9) months.

What about the “Progression-free survival, Median (95% CI)” value ([1]; No surgery) of the same compound?
The value was 7.8 (6.4-9.4) months.

What about the “Progression-free survival, Median (95% CI)” value ([1]; RT <45 Gy) of the same compound?
Its value is 8.0 (6.4-14.6) months.

What about the “Overall Survival, Median (95% CI)” value ([1]; RT ≧45 Gy) of the same compound?
The value was 21.8 (17.6-NR) months.

What about the “Progression-free survival, Median (95% CI)” value ([1]; RT ≧45 Gy) of the same compound?
The value was 21.2 (7.1-21.2) months.

What about the Complete response ([1]; Radiation (n = 34)) of the same compound?
Its Complete response is 9 (26) No. of patients (%).

What about the Overall response ([1]; Radiation (n = 34)) of the same compound?
Its Overall response is 15 (44) No. of patients (%).

And the Partial response ([1]; Radiation (n = 34))?
Its Partial response is 6 (18) No. of patients (%).

And the “Stable disease (>4 months)” value ([1]; Radiation (n = 34))?
Its value is 12 (35) No. of patients (%).

What about the Tumor control ([1]; Radiation (n = 34)) of the same compound?
The Tumor control was 27 (79) No. of patients (%).

What about the Complete response [1, 7] of the same compound?
The Complete response was 0 No. of patients (%).

What about the Overall response [1, 7] of the same compound?
Its Overall response is 2 (15) No. of patients (%).

And the Partial response [1, 7]?
The Partial response was 2 (15) No. of patients (%).

And the Stable disease [1, 7]?
Its Stable disease is 5 (38) No. of patients (%).

What about the Tumor control [1, 7] of the same compound?
Its Tumor control is 7 (54) No. of patients (%).

And the Complete response [1, 8]?
Its Complete response is 2 (10) No. of patients (%).

And the Overall response [1, 8]?
Its Overall response is 7 (35) No. of patients (%).

What about the Partial response [1, 8] of the same compound?
Its Partial response is 5 (25) No. of patients (%).

What about the Stable disease [1, 8] of the same compound?
The Stable disease was 8 (40) No. of patients (%).

And the Tumor control [1, 8]?
The Tumor control was 15 (75) No. of patients (%).

And the “Progression-free survival, Median (95% CI)” value ([1]; Surgery)?
The value was 16.8 (8.3-31.4) months.

What about the “patients achieving complete response” value ([1]; after first-line response to irinotecan-based therapy) of the same compound?
The value was 7 of 9.

And the “second line overall response rate” value ([1]; all 9 first-line irinotecan responders included)?
Its value is 40.5%.

What about the “complete response (CR)” value ([1]; all 66 patients) of the same compound?
The value was 20%.

What about the overall response rate ([1]; all 66 patients) of the same compound?
Its overall response rate is 38%.

And the “partial response (PR)” value ([1]; all 66 patients)?
The value was 18%.

What about the tumor control rate ([1]; all 66 patients) of the same compound?
Its tumor control rate is 76%.

What about the “median PFS” value ([1]; first-line XCEL) of the same compound?
The value was 8.3 months.

And the median overall survival ([1]; first-line XCEL)?
The median overall survival was 26.9 months.

What about the “Stable disease (%)” value ([1]; first-line XCEL (n=24)) of the same compound?
The value was 50%.

What about the “complete response (CR)” value ([1]; first-line XCEL (n=24)) of the same compound?
Its value is 17%.

What about the overall response rate ([1]; first-line XCEL (n=24)) of the same compound?
The overall response rate was 34% and 33%.

What about the tumor control rate ([1]; first-line XCEL (n=24)) of the same compound?
The tumor control rate was 84%.

And the complete responses ([1]; nineteen of 66 patients, XCEL alone or with radiation)?
Its complete responses is 29%.

What about the “complete response by site” value ([1]; nodal metastasis) of the same compound?
Its value is 51%.

What about the “complete response by site” value ([1]; peritoneum) of the same compound?
The value was 40%.

What about the “Stable disease (%)” value ([1]; second-line XCEL (n=28)) of the same compound?
The value was 50%.

What about the “complete response (CR)” value [1, 9] of the same compound?
Its value is 7%.

What about the overall response rate [1, 9] of the same compound?
The overall response rate was 25%.

And the tumor control rate [1, 9]?
Its tumor control rate is 68%.

What about the median overall survival [1, 10] of the same compound?
The median overall survival was 19.3 months.

And the “median progression free survival” value [1, 10]?
Its value is 8.3 months.

What about the “median PFS” value [1, 11] of the same compound?
Its value is 6.7 months.

What about the median overall survival [1, 11] of the same compound?
The median overall survival was 17.8 months and 17.6 months.

And the “Mild serum creatinine elevations” value ([2]; 3 patients after 14 to 32 months of XCEL, reversible upon discontinuation of celecoxib)?
The value was 1.6 to 2.0 mg/dL.

What about the “grade ⅔ HFS” value ([2]; expanded study with longer follow up) of the same compound?
Its value is 17%.

And the “gastrointestinal bleeding, other cardiovascular events, deaths” value ([2]; in vivo)?
Its value is “No gastrointestinal bleeding, other cardiovascular events, or deaths were noted”.

And the “median time to HFS peak” value ([2]; n=12)?
Its value is 6.0 months and 6 months.

What about the “median time to HFS onset” value ([2]; n=17) of the same compound?
The value was 3.8 months.

What about the “Incidence of grade 1 HFS” value ([2]; n=65) of the same compound?
The value was 14%.

And the “Incidence of grade 2 HFS” value ([2]; n=65)?
Its value is 15%.

And the “Incidence of grade 3 HFS” value ([2]; n=65)?
The value was 2%.

And the “grade ¾ lymphopenia” value ([2]; n=65)?
The value was 24%.

And the “lymphopenia of all grades” value ([2]; n=65)?
The value was 56%.

And the “incidence of grade ⅔ HFS” value ([3]; capecitabine 1000 mg/m2/d bid (Lin et al., 2002))?
Its value is 12.5%.

What about the “grade ¾ diarrhea” value ([3]; versus capecitabine alone (Lin et al., 2002)) of the same compound?
Its value is “reduced”.
